Values after ≈ are worked out from the molar mass of the structure shown. Read-outs that look alike come from different tables or passages of the source.
Key:
[1] = test system: Staphylococcus aureus 10 B; assay: in vitro antibacterial test (MIC); assay type: cell-based
[2] = test system: Staphylococcus aureus 2999i+p+; assay: in vitro antibacterial test (MIC); assay type: cell-based
[3] = test system: Streptococcus pyogenes Aronson; assay: in vitro antibacterial test (MIC); assay type: cell-based
[4] = test system: Streptococcus pneumoniae III/84; assay: in vitro antibacterial test (MIC); assay type: cell-based
[5] = test system: Streptococcus faecalis D 3; assay: in vitro antibacterial test (MIC); assay type: cell-based; conditions: Enterococcus faecalis, D3
[6] = test system: Neisseria meningitidis 1316; assay: in vitro antibacterial test (MIC); assay type: cell-based
[7] = test system: Neisseria gonorrhoeae 1317-4; assay: in vitro antibacterial test (MIC); assay type: cell-based; conditions: 13174
[8] = test system: Haemophilus influenzae NCTC 4560; assay: in vitro antibacterial test (MIC); assay type: cell-based; conditions: NCTC4560
Escherichia coli 205 = assay: in vitro antibacterial test (MIC); assay type: cell-based
[9] = test system: Escherichia coli 205 R+TEM; assay: in vitro antibacterial test (MIC); assay type: cell-based
Escherichia coli 16 = assay: in vitro antibacterial test (MIC); assay type: cell-based
Escherichia coli DC 2 = assay: in vitro antibacterial test (MIC); assay type: cell-based; conditions: DC2; Escherichia coli DC 2, in vitro
Excerpt: (§1) Die Verbindungen der Formel I weisen wertvolle pharmakologische Eigenschaften auf, oder können als Zwischenprodukte zur Herstellung von solchen Verbindungen mit wertvollen pharmakologischen Eigenschaften verwendet werden. Verbindungen der Formel I, worin R1 Wasserstoff oder Methyl ist, Rz Hydroxybedeutet, R3 Carboxyl oder eine unter physiologischen Bedingungen spaltbare veresterte Carboxylgruppe bedeutet und R4 die unter Formel I angegebene Bedeutung hat, und pharmakologisch verwendbare Salze von solchen Verbindungen mit salzbildenden Gruppen haben antibakterielle Wirkungen. Beispielsweise sind sie in vitro gegen grampositive und gramnegative Kokken, z.B. Staphylococcus aureus, Streptococcus pyogenes, Streptococcus pneumoniae, Streptococcus faecalis, Neisseria meningitidis und Neisseria gonorrhoeae, und gegen gramnegative Stäbchenbakterien, wie Enterobacteriaceae, Haemophilus influenzae und Pseudomonas aeruginosa, und Anaerobier, z.B. Bacteroides sp., in minimalen Konzentrationen von ca. 0,01 bis ca. 64 µg/ml wirksam. In vivo, bei der systemischen Infektion der Maus, z.B. durch Staphylococcus aureus oder Streptococcus pyogenes, ergeben sich bei subkutaner oder oraler Applikation ED50 -Werte von ca. 0,3 bis ca. 30 mg/kg. Beispielsweise weisen Natrium-(5R,6S)-2-[3-(2-methyl-tetrazol-5-yl)-propyl]-6-hydroxymethyl-2-penem 3-carboxylat (Verbindung A) und (5R,65)-2-[3-(2-Methyl-1,3,4-oxadiazo1-5-yl)-propyl]-6-hydroxymethyl-2-penem-3-carbonsäure (Verbindung B) in dem genannten in-vitro-Test die folgenden Werte auf: […]

Escherichia coli UB 1005 = assay: in vitro antibacterial test (MIC); assay type: cell-based; conditions: UB1005; Escherichia coli UB 1005, in vitro
Excerpt: as §1

[10] = test system: Klebsiella pneumoniae 327; assay: in vitro antibacterial test (MIC); assay type: cell-based
Serratia marcescens 344 = assay: in vitro antibacterial test (MIC); assay type: cell-based
[11] = test system: Enterobacter cloacae P 99; assay: in vitro antibacterial test (MIC); assay type: cell-based; conditions: P99
Proteus mirabilis 774 = assay: in vitro antibacterial test (MIC); assay type: cell-based
Proteus mirabilis 1219 = assay: in vitro antibacterial test (MIC); assay type: cell-based
Proteus rettgeri 856 = assay: in vitro antibacterial test (MIC); assay type: cell-based; conditions: Providencia rettgeri
Proteus morganii 2359 = assay: in vitro antibacterial test (MIC); assay type: cell-based; conditions: Morganella morganii
Proteus morganii 1518 = assay: in vitro antibacterial test (MIC); assay type: cell-based; conditions: Morganella morganii
[12] = test system: Pseudomonas aeruginosa ATCC 12055; assay: in vitro antibacterial test (MIC); assay type: cell-based; conditions: ATCC12055
[13] = test system: Pseudomonas aeruginosa K 799/61; assay: in vitro antibacterial test (MIC); assay type: cell-based; conditions: K799/61
[14] = test system: Clostridium perfringens 194; assay: microbe, parasite or virus in culture; assay type: cell-based
[15] = test system: Bacteroides fragilis L 01; assay: in vitro antibacterial test (MIC); assay type: cell-based; conditions: L01
[16] = test system: Staphylococcus aureus lOB; assay: systemic infection of the mouse (ED50); assay type: in vivo, Maus; conditions: sc
Excerpt: as §1, with “mg/kg.” for “mg/kg. Beispielsweise weisen Natrium-(5R,6S)-2-[3-(2-methyl-tetrazol-5-yl)-propyl]-6-hydroxymethyl-2-penem 3-carboxylat (Verbindung A) und (5R,65)-2-[3-(2-Methyl-1,3,4-oxadiazo1-5-yl)-propyl]-6-hydroxymethyl-2-penem-3-carbonsäure (Verbindung B) in dem genannten in-vitro-Test die folgenden Werte auf:”

With `Cc1nnc(CCCC2=C(C(=O)O)N3C(=O)[C@H](CO)[C@H]3S2)o1` [Verbindung B, (5R,65)-2-[3-(2-Methyl-1,3,4-oxadiazo1-5-yl)-propyl]-6-hydroxymethyl-2-penem-3-carbonsäure] the MIC ([1]; Staphylococcus aureus 10 B, in vitro, read-out: MIC) was 0.2 µg/mL (≈ 0.615 µM), the MIC ([2]; Staphylococcus aureus 2999i+p+, in vitro, read-out: MIC) was 0.2 µg/mL (≈ 0.615 µM) and the MIC ([3]; Streptococcus pyogenes Aronson, in vitro, read-out: MIC) was 0.1 µg/mL (≈ 0.307 µM). The MIC ([4]; Streptococcus pneumoniae III/84, in vitro, read-out: MIC) was 0.05 µg/mL (≈ 0.154 µM), the MIC ([5]; Streptococcus faecalis D 3, in vitro, read-out: MIC) was 32 µg/mL (≈ 98.4 µM) and the MIC ([6]; Neisseria meningitidis 1316, in vitro, read-out: MIC) was 0.05 µg/mL (≈ 0.154 µM). The MIC ([7]; Neisseria gonorrhoeae 1317-4, in vitro, read-out: MIC) was 0.01 µg/mL (≈ 0.0307 µM), the MIC ([8]; Haemophilus influenzae NCTC 4560, in vitro, read-out: MIC) was 2 µg/mL (≈ 6.15 µM) and the MIC (Escherichia coli 205; Escherichia coli 205, in vitro, read-out: MIC) was 1 µg/mL (≈ 3.07 µM). The MIC [9] was 4 µg/mL (≈ 12.3 µM), the MIC (Escherichia coli 16; Escherichia coli 16, in vitro, read-out: MIC) was 16 µg/mL (≈ 49.2 µM) and the MIC (Escherichia coli DC 2) was 1 µg/mL (≈ 3.07 µM). For the same compound, the MIC (Escherichia coli UB 1005) was 2 µg/mL (≈ 6.15 µM), the MIC ([10]; Klebsiella pneumoniae 327, in vitro, read-out: MIC) was 2 µg/mL (≈ 6.15 µM) and the MIC (Serratia marcescens 344; Serratia marcescens 344, in vitro, read-out: MIC) was 16 µg/mL (≈ 49.2 µM). For the same compound, the MIC [11] was 16 µg/mL (≈ 49.2 µM), the MIC (Proteus mirabilis 774; Proteus mirabilis 774, in vitro, read-out: MIC) was 2 µg/mL (≈ 6.15 µM) and the MIC (Proteus mirabilis 1219; Proteus mirabilis 1219, in vitro, read-out: MIC) was 4 µg/mL (≈ 12.3 µM). The MIC (Proteus rettgeri 856; Proteus rettgeri 856, in vitro, read-out: MIC) was 4 µg/mL (≈ 12.3 µM), the MIC (Proteus morganii 2359; Proteus morganii 2359, in vitro, read-out: MIC) was 2 µg/mL (≈ 6.15 µM) and the MIC (Proteus morganii 1518; Proteus morganii 1518, in vitro, read-out: MIC) was 8 µg/mL (≈ 24.6 µM). The MIC ([12]; Pseudomonas aeruginosa ATCC 12055, in vitro, read-out: MIC) was greater than 32 µg/mL, the MIC [13] was 2 µg/mL (≈ 6.15 µM) and the MIC [14] was 0.1 µg/mL (≈ 0.307 µM). The MIC ([15]; Bacteroides fragilis L 01, in vitro, read-out: MIC) was 0.5 µg/mL (≈ 1.54 µM) and the ED50 ([16]; mouse, systemic infection by Staphylococcus aureus lOB, subcutaneous application, read-out: ED50) was 0.3 to 30 mg/kg.

In the case of `Cn1nnc(CCCC2=C(C(=O)[O-])N3C(=O)[C@H](CO)[C@H]3S2)n1.[Na+]` [Verbindung A, Natrium-(5R,6S)-2-[3-(2-methyl-tetrazol-5-yl)-propyl]-6-hydroxymethyl-2-penem 3-carboxylat], the MIC ([1]; Staphylococcus aureus, 10B) is reported as 0.2 µg/mL, the MIC ([2]; Staphylococcus aureus) is reported as 0.2 µg/mL and the MIC ([3]; Streptococcus pyogenes) is reported as 0.2 µg/mL. For the same compound, the MIC ([4]; Streptococcus pneumoniae) was 0.05 µg/mL, the MIC [5] was 32 µg/mL and the MIC ([6]; Neisseria meningitidis, 1316) was 0.01 µg/mL. It also gave an MIC ([7]; Neisseria gonorrhoeae) of 0.01 µg/mL, an MIC ([8]; Haemophilus influenzae) of 2 µg/mL and an MIC (Escherichia coli 205; Escherichia coli, 205) of 4 µg/mL. For the same compound, the MIC [9] was 8 µg/mL, the MIC (Escherichia coli 16; Escherichia coli, 16) was 32 µg/mL and the MIC (Escherichia coli DC 2) was 2 µg/mL. The MIC (Escherichia coli UB 1005) was 8 µg/mL, the MIC ([10]; Klebsiella pneumoniae, 327) was 4 µg/mL and the MIC (Serratia marcescens 344; Serratia marcescens, 344) was 64 µg/mL. It also gave an MIC [11] of 32 µg/mL, an MIC (Proteus mirabilis 774; Proteus mirabilis, 774) of 4 µg/mL and an MIC (Proteus mirabilis 1219; Proteus mirabilis, 1219) of 8 µg/mL. It also gave an MIC (Proteus rettgeri 856; 856) of 16 µg/mL, an MIC (Proteus morganii 2359; 2359) of 2 µg/mL and an MIC (Proteus morganii 1518; 1518) of 16 µg/mL. For the same compound, the MIC ([12]; Pseudomonas aeruginosa) was greater than 128 µg/mL, the MIC [13] was 2 µg/mL and the MIC [14] was 0.2 µg/mL. For the same compound, the MIC ([15]; Bacteroides fragilis) was 0.5 µg/mL and the ED50 ([16]; Staphylococcus aureus) was 3 to 10 mg/kg.
